According to patent US20170184604A1, “DD1ALPHA RECEPTOR AND USES THEREOF IN IMMUNE DISORDERS” (THE GENERAL HOSPITAL CORPORATION, priority 2014, published 2017):

System: DD1α
Assay: Ig fusion protein-pull down assay
Format: binding, human
Protocol: FIGS. 6A-6E show physical association of DD1α with PD1 but not with PD-L1. (FIG. 6A) Interaction of DD1α with PD1 or DD1α. […] The bound Ig fusion proteins were detected with anti-Ig-APC. Empty vector (pcDNA3.1)-transfected cells stained with Ig proteins are shown as a negative control (gray filled) and other staining is shown as black open. (FIG. 6B) DD1α binds to both DD1α and PD1 on CD4+ T cells. Purified CD4+ T cells from Wt and DD1α−/− mice were assayed for binding to Ig fused DD1α or PD1 proteins. Cells were incubated with DD1α-Ig (open), PD1-Ig (open), or control Ig proteins (gray filled) and the bound Ig fusion proteins were detected by anti-Ig-APC. […] The bound Ig fusion proteins were detected by anti-Ig-APC. Binding amounts were determined by percentage of APC positive cells compared to control Ig protein-bound cells. (FIG. 6C) Ig-pulldown experiments show DD1α interaction with both DD1α and PD1. […] The bead bound proteins were eluted and determined by western blot analysis using anti-HA antibody (asterisks). (FIG. 6D) Ig fusion proteins (control Ig, DD1α-Ig, or PD1-Ig) were incubated with lysates from Nutlin-3-treated MCF7 cells and pulled down using protein A/G agarose. The bead bound proteins were eluted and detected by western blot analysis with anti-DD1α or anti-PD1 antibody (asterisk). (FIG. 6E) p53-mediated induction of PD1 and PD-L1. MCF7 cells were treated by Nutlin-3 (10 μM) for 1 to 3 days. MCF7 cells were transfected with control siRNA or p53 siRNA for 24 hours and treated with CPT (500 nM) or DMSO (control) for 1 and 2 days. The levels of indicated proteins were analyzed by western blot analysis. Total RNAs from control siRNA or p53 siRNA transfected MCF7 cells were assessed for mRNA levels of PD1 or PD-L1 by real-time quantitative PCR. PD1 or PD-L1 mRNA levels were normalized to 36B4 expression and shown as mean±SD (n=3). Protein levels of PD1 and PD-L1 were examined in EJ-p53tet cells in the absence or presence of tetracycline (tet), ZR75-1 cells treated with CPT (500 nM), or A375 cells exposed to 13 Gy ionizing irradiation for the indicated times.
Ig fusion proteins (control Ig, DD1α-Ig, or PD1-Ig) were incubated with lysates from Nutlin-3-treated MCF7 cells and pulled down using proten A/G agarose. The bead bound proteins were eluted and detected by western blot analysis with anti-DD1α or anti-PD1 antibody.
Based on the results that both PD-1 and DD1α receptors on T cells contribute to the co-inhibitory roles for DD1α(FIG. 5), it was tested whether DD1α could physically and functionally associate with PD-1 receptor. […] To confirm the specificity of this interaction, the inventors carried out Ig fusion protein-pull down assays using lysates from PD-1, DD1α, or TIM3-transfected 293T cells. […]

Sequence of DD1α (Q9H7M9 33-311): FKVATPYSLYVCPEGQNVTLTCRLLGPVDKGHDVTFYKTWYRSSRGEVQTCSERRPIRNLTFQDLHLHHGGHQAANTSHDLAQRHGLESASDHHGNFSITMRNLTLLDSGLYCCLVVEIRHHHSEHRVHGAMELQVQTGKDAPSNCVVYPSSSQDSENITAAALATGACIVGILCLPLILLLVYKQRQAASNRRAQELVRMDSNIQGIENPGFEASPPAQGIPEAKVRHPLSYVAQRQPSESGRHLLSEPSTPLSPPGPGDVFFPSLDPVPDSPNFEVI

DD1α-Ig: the extracellular region of DD1α fused with the immunoglobulin G Fc segment
pull down of DD1α (lysates from transfected 293T cells): pulled down
pull down of endogenous DD1α receptor (lysates of Nutlin-3-treated MCF7 cells): detected
